Measured values as given in patent publication US6949648B2, “Condensed pyrazole derivatives, process for producing the same and use thereof” (Takeda Pharmaceutical Company Limited, priority 2000, dated 2005).
Counter-ions that a name gives are not always drawn.

| SMILES | melting point |
| --- | --- |
| CCCc1c2ccccc2nc2c1c(C)nn2-c1ccccn1 [Example 2-103, 3-Methyl-4-propyl-1-(2-pyridinyl)-1H-pyrazolo[3,4-b]quinoline] | 108 to 109 °C |
| Cc1nn(-c2ccccn2)c2nc3ccccc3c(OC3CCCCC3)c12 [Example 2-22, 4-Cyclohexyloxy-3-methyl-1-(2-pyridinyl)-1H-pyrazolo[3,4-b]quinoline] | 88 to 91 °C |
| Cc1ccc(-n2nc(C)c3c(Cl)c4ccccc4nc32)nc1 [Example 2-115, 4-Chloro-3-methyl-1-(5-methyl-2-pyridinyl)-1H-pyrazolo[3,4-b]quinoline] | 197 to 200 °C |
| Cc1nn(-c2cccc(Cl)n2)c2nc3ccccc3c(Cl)c12 [Example 2-109, 4-Chloro-1-(6-chloro-2-pyridinyl)-3-methyl-1H-pyrazolo[3,4-b]quinoline] | 191 to 193 °C |
| COC(=O)c1ccc2c(=O)c3c(C)nn(-c4ccccn4)c3[nH]c2c1 [Example 2-67, Methyl 3-methyl-4-oxo-1-(2-pyridinyl)-4,9-dihydro-1H-pyrazolo[3,4-b]quinoline-7-carboxylate] | 251 to 252 °C |
| CCOC(=O)c1cnc2c(c(C)nn2-c2ccccn2)c1N [Example 1-31, Ethyl 4-amino-3-methyl-1-(2-pyridinyl)-1H-pyrazolo[3,4-b]pyridine-5-carboxylate] | 147 to 149 °C |
| Cc1cccnc1-n1nc(C)c2c(Cl)c3ccccc3nc21 [Example 2-118, 4-Chloro-3-methyl-1-(3-methyl-2-pyridinyl)-1H-pyrazolo[3,4-b]quinoline] | 160 to 161 °C |
| CCCCN(C)c1c2ccccc2nc2c1c(C)nn2-c1ccccn1 [Example 2-10, N-Butyl-N-methyl-[3-methyl-1-(2-pyridinyl)-1H-pyrazolo[3,4-b]quinolin-4-yl]amine] | 85 to 87 °C |
| Cc1nn(-c2ccccn2)c2nc3ccccc3c(OCC(C)C)c12 [Example 2-20, 4-Isobutoxy-3-methyl-1-(2-pyridinyl)-1H-pyrazolo[3,4-b]quinoline] | 117 to 120 °C |
| Cc1nn(-c2ccccn2)c2c1c(=O)c1ccccc1n2C [Example 2-14, 3,9-Dimethyl-1-(2-pyridinyl)-1,9-dihydro-4H-pyrazolo[3,4-b]quinolin-4-one] | 192 to 193 °C |
| Cc1nn(-c2nccs2)c2[nH]c3ccccc3c(=O)c12 [Example 2-151, 3-Methyl-1-(1,3-thiazol-2-yl)-1,9-dihydro-4H-pyrazolo[3,4-b]quinolin-4-one] | 226 to 227 °C |
| Cc1nn(-c2ccncc2)c2nc3ccccc3c(N(C)C)c12 [Example 2-142, N,N-Dimethyl-N-[3-methyl-1-(4-pyridinyl)-1H-pyrazolo[3,4-b]quinolin-4-yl]amine] | 155 to 156 °C |
| O=c1c2cc(F)ccc2[nH]c2c1cnn2-c1ccccn1 (as salt: salt) [Example 2-165, 6-Fluoro-1-(2-pyridinyl)-1,9-dihydro-4H-pyrazolo[3,4-b]quinolin-4-one] | 263 to 266 °C |
| Cc1nn(-c2cccnc2)c2nc3ccccc3c(Cl)c12 [Example 2-136, 4-Chloro-3-methyl-1-(3-pyridinyl)-1H-pyrazolo[3,4-b]quinoline] | 144 to 145 °C |
| Cc1nn(-c2ccccn2)c2ncc(C(=O)Nc3ccc(F)c(F)c3)c(O)c12 [Example 1-15, N-(3,4-Difluorophenyl)-4-hydroxy-3-methyl-1-(2-pyridinyl)-1H-pyrazolo[3,4-b]pyridine-5-carboxamide] | > 300 °C |
| Cc1nn(-c2ccccn2)c2[nH]c3c(Cl)cc(Cl)cc3c(=O)c12 [Example 2-77, 6,8-Dichloro-3-methyl-1-(2-pyridinyl)-1,9-dihydro-4H-pyrazolo[3,4-b]quinolin-4-one] | 288 to 289 °C |
| Cc1nn(-c2ccccn2)c2nc3ccc(F)c(F)c3c(Cl)c12 [Example 2-88, 4-Chloro-5,6-difluoro-3-methyl-1-(2-pyridinyl)-1H-pyrazolo[3,4-b]quinoline] | 240 to 242 °C |
| Cc1nn(-c2ccccn2)c2[nH]c3c(c(=O)c12)CCCCC3 [Example 2-195, 3-Methyl-1-(2-pyridinyl)-5,6,7,8,9,10-hexahydrocyclohepta[b]pyrazolo[4,3-e]pyridin-4(1H)-one] | 184 to 185 °C |
| Cc1nn(-c2nccs2)c2nc3ccccc3c(Cl)c12 [Example 2-149, 4-Chloro-3-methyl-1-(1,3-thiazol-2-yl)-1H-pyrazolo[3,4-b]quinoline] | 208 to 209 °C |
| Cc1nn(Cc2ccccn2)c2nc3ccccc3c(Cl)c12 [Example 2-186, 4-Chloro-3-methyl-1-(2-pyridinylmethyl)-1H-pyrazolo[3,4-b]quinoline] | 113 to 115 °C |
| O=c1c2ccccc2[nH]c2c1c(-c1ccccc1)nn2-c1ccccn1 [Example 2-182, 3-Phenyl-1-(2-pyridinyl)-1,9-dihydro-4H-pyrazolo[3,4-b]quinolin-4-one] | 237 to 240 °C |
| Cc1nn(-c2ccc(Cl)cn2)c2nc3ccccc3c(Cl)c12 [Example 2-113, 4-Chloro-1-(5-chloro-2-pyridinyl)-3-methyl-1H-pyrazolo[3,4-b]quinoline] | 216 to 217 °C |
| Cc1nn(-c2ccccn2)c2nc3ccccc3c(C(N)=O)c12 [Example 2-108, 3-Methyl-1-(2-pyridinyl)-1H-pyrazolo[3,4-b]quinoline-4-carboxamide] | > 300 °C |
| Cc1c(O)nc2c(c(C)nn2-c2ccccn2)c1C [Example 1-24, 3,4,5-Trimethyl-1-(2-pyridinyl)-1H-pyrazolo[3,4-b]pyridin-6-ol] | 226 to 228 °C |
| Cc1nn(-c2ccccn2)c2nc(O)c3c(c12)CCC3 [Example 1-28, 1-Methyl-3-(2-pyridinyl)-3,6,7,8-tetrahydrocyclopenta[d]pyrazolo[3,4-b]pyridin-5-ol] | 255 to 256 °C |
| Cc1cccc2c(=O)c3c(C)nn(-c4ccc5ccccc5n4)c3[nH]c12 [Example 2-154, 3,8-Dimethyl-1-(2-quinolinyl)-1,9-dihydro-4H-pyrazolo[3,4-b]quinolin-4-one] | 255 to 257 °C |
| Cc1ccc2nc3c(c(C)nn3-c3ccccn3)c(Cl)c2c1 [Example 2-32, 4-Chloro-3,6-dimethyl-1-(2-pyridinyl)-1H-pyrazolo[3,4-b]quinoline] | 158 to 160 °C |

The remaining lines, values ahead:

| melting point | SMILES |
| --- | --- |
| 241 to 243 °C | Cc1cccc2c(=O)c3c(C)nn(-c4ccccn4)c3[nH]c12 [Example 2-38, 3,8-Dimethyl-1-(2-pyridinyl)-1,9-dihydro-4H-pyrazolo[3,4-b]quinolin-4-one] |
| 146 to 148 °C | CCOc1cccc(-n2nc(C)c3c(Cl)c4c(C)cccc4nc32)n1 [Example 2-121, 4-Chloro-3,5-dimethyl-1-(6-ethoxy-2-pyridinyl)-1H-pyrazolo[3,4-b]quinoline] |
| 231 to 233 °C | O=c1c2ccccc2[nH]c2c1c(C(F)(F)F)nn2-c1ccccn1 [Example 2-167, 1-(2-Pyridinyl)-3-trifluoromethyl-1,9-dihydro-4H-pyrazolo[3,4-b]quinolin-4-one] |
| > 300 °C | Cc1nn(-c2ccccn2)c2ncc(C(=O)Nc3cccc(F)c3)c(O)c12 [Example 1-13, N-(3-Fluorophenyl)-4-hydroxy-3-methyl-1-(2-pyridinyl)-1H-pyrazolo[3,4-b]pyridine-5-carboxamide] |
| 213 to 214 °C | Cc1nn(-c2ccccn2)c2nc3cc(Cl)c(Cl)cc3c(Cl)c12 [Example 2-75, 4,6,7-Trichloro-3-methyl-1-(2-pyridinyl)-1H-pyrazolo[3,4-b]quinoline] |
| 102 to 103 °C | CCCCc1c2ccccc2nc2c1c(C)nn2-c1ccccn1 [Example 2-104, 4-Butyl-3-methyl-1-(2-pyridinyl)-1H-pyrazolo[3,4-b]quinoline] |
| 202 to 205 °C | Cc1cccnc1-n1nc(C)c2c(N)c3ccccc3nc21 [Example 2-119, 3-Methyl-1-(3-methyl-2-pyridinyl)-1H-pyrazolo[3,4-b]quinolin-4-ylamine] |
| 269 to 272 °C | Cc1nn(Cc2ccccn2)c2[nH]c3ccccc3c(=O)c12 [Example 2-189, 3-Methyl-1-(2-pyridinylmethyl)-1,9-dihydro-4H-pyrazolo[3,4-b]quinolin-4-one] |
| 199 to 202 °C | Cc1cccnc1-n1nc(C)c2c(N)c3cccc(C)c3nc21 [Example 2-134, 3,8-Dimethyl-1-(3-methyl-2-pyridinyl)-1H-pyrazolo[3,4-b]quinolin-4-ylamine] |
| 224 to 226 °C | Cc1nn(-c2ccccn2)c2ncc(C(=O)c3ccccc3)c(O)c12 [Example 1-4, [4-Hydroxy-3-methyl-1-(2-pyridinyl)-1H-pyrazolo[3,4-b]pyridin-5-yl]phenylmethanone] |
| 303 to 306 °C | Cc1nn(-c2ccccn2)c2[nH]c3cccc(C(=O)O)c3c(=O)c12 [Example 2-62, 3-Methyl-4-oxo-1-(2-pyridinyl)-4,9-dihydro-1H-pyrazolo[3,4-b]quinoline-5-carboxylic acid] |
| > 300 °C | Cc1nn(-c2ccncc2)c2[nH]c3ccccc3c(=O)c12 [Example 2-143, 3-Methyl-1-(4-pyridinyl)-1,9-dihydro-4H-pyrazolo[3,4-b]quinolin-4-one] |
| 208 to 211 °C | Cc1nn(-c2ccccn2)c2nc3ccccc3c(NC3CC3)c12.Cl |
| 197 to 199 °C | COc1ccc(-c2nn(-c3ccccn3)c3[nH]c4ccccc4c(=O)c23)cc1 [Example 2-185, 3-(4-Methoxyphenyl)-1-(2-pyridinyl)-1,9-dihydro-4H-pyrazolo[3,4-b]quinolin-4-one] |
| > 300 °C | Cc1nn(-c2ccccn2)c2ncc(C(=O)NCc3ccccc3)c(O)c12 [Example 1-9, N-Benzyl-4-hydroxy-3-methyl-1-(2-pyridinyl)-1H-pyrazolo[3,4-b]pyridine-5-carboxamide] |
| 257 to 260 °C | Cc1ccc(-n2nc(C)c3c(N)c4cccc(C)c4nc32)nc1 [Example 2-132, 3,8-Dimethyl-1-(5-methyl-2-pyridinyl)-1H-pyrazolo[3,4-b]quinolin-4-ylamine] |
| 262 to 263 °C | Cc1nn(-c2ccc(Cl)cn2)c2[nH]c3ccccc3c(=O)c12 [Example 2-114, 1-(5-Chloro-2-pyridinyl)-3-methyl-1,9-dihydro-4H-pyrazolo[3,4-b]quinolin-4-one] |
